Results: US20250163104A1, “MACROCYCLIC IMMUNOMODULATORS” (priority 2021, published 2025)
Where a SMILES comes first, the peptide text is derived from it. Bridges are numbered along the chain shown (N, C = ends). [ ]: non-standard residue; d: D form. The star is where a group is joined. ξ: configuration not given here. Phe(4-COOH) = N[C@@H](Cc1ccc(C(=O)O)cc1)C(=O)O; Bip = N[C@@H](Cc1ccc(-c2ccccc2)cc1)C(=O)O; Phe(3-OMe) = COc1cccc(C[C@H](N)C(=O)O)c1; Phe(3-F) = N[C@@H](Cc1cccc(F)c1)C(=O)O; Phe(3-Me) = Cc1cccc(C[C@H](N)C(=O)O)c1; Val(3-OH) = CC(C)(O)[C@H](N)C(=O)O; ξW = NC(Cc1c[nH]c2ccccc12)C(=O)O; 4Pal = N[C@@H](Cc1ccncc1)C(=O)O; Cha = N[C@@H](CC1CCCCC1)C(=O)O; Cit = NC(=O)NCCC[C@H](N)C(=O)O; Ile(3ξ) = CCC(C)[C@H](N)C(=O)O; dCha = N[C@H](CC1CCCCC1)C(=O)O; Carboxymethyl = O=C(O)C*; Nle = CCCC[C@H](N)C(=O)O; Orn = NCCC[C@H](N)C(=O)O; Pra = C#CC[C@H](N)C(=O)O; Dab = NCC[C@H](N)C(=O)O; Dap = NC[C@H](N)C(=O)O; Propargyl = C#CC*

biological target: T1, human PD-1 / PD-L1-Ig binding on Jurkat cell line over-expressing human PD-1 (Jurkat-PD-1) (Homo sapiens, UniProt Q15116); assay: Jurkat-PD-1 Cell Binding High-Content Screening Assay (CBA); assay type: cell-based; details: Jurkat-PD-1 cells, PE-labeled PD-L1-Ig 20 nM final; read-out: Jurkat HPD1_PDL1 IC50
T1 construct: expressed in transfected cells; host or cells: Jurkat
T1 sequence (Q15116 25-288): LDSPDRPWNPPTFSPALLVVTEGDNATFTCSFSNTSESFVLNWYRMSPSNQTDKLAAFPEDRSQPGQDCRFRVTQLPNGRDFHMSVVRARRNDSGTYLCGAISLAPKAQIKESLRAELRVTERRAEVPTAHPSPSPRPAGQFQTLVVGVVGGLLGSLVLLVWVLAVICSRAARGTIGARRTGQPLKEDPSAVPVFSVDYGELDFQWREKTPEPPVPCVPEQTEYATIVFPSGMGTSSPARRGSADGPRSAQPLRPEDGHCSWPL
Procedure, shortened: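 PE-PD-L1-Ig 20 nM final; cells in DMEM/10% FCS; cpd pre-incubation 2 h, 37° C; ligand 1 h; PFA fix + Hoechst 33342; high-content imaging read-out.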

SMILES | IC50 [µM]
Cc1cccc(C[C@@H]2NC(=O)[C@H](CC(=O)O)NC(=O)[C@H](Cc3ccc(OCC(=O)O)cc3)NC(=O)[C@H](Cc3ccncc3)NC(=O)CSC[C@@H](C(=O)N[C@@H](CCN)C(N)=O)NC(=O)[C@H](CO)NC(=O)[C@H](C(C)(C)O)NC(=O)[C@H](CC3CCCCC3)NC(=O)[C@H](CCN)NC(=O)[C@@H](CC(C)C)NC(=O)C(C3CCNCC3)NC(=O)[C@H](Cc3ccc(OCC(=O)O)cc3)NC(=O)[C@H](Cc3ccc(-c4ccccc4)cc3)NC(=O)[C@H](Cc3ccc(OCC(=O)O)cc3)NC2=O)c1 (mixture of isomers) [Compound 2084] | 0.209
CC(C)[C@@H]1NC(=O)[C@H](Cc2c[nH]c3ccccc23)NC(=O)[C@H](CC(=O)O)NC(=O)[C@H](Cc2ccc(OCC(=O)O)cc2)NC(=O)[C@H](Cc2ccc(OCC(=O)O)cc2)NC(=O)CSC[C@@H](C(=O)N[C@@H](C)C(N)=O)NC(=O)[C@H]([C@@H](C)O)NC(=O)[C@H](C(C)C)NC(=O)[C@H](CC2CCCCC2)NC(=O)[C@H](CCN)NC(=O)[C@@H](CC2CCCCC2)NC(=O)[C@H](CCCN)NC(=O)[C@H](CCCNC(N)=O)NC(=O)[C@H](Cc2ccc(-c3ccccc3)cc2)NC1=O [Compound 1641] ({CH2CO}-Y(Carboxymethyl)Y(Carboxymethyl)DWV[Bip][Cit][Orn][dCha][Dab][Cha]VTCA-NH2; thioether N-14) | 0.0371
CC(C)C[C@@H]1NC(=O)C(Cc2c[nH]c3ccccc23)NC(=O)[C@H](CC(=O)O)NC(=O)[C@H](Cc2ccc(O)cc2)NC(=O)[C@H](Cc2ccccc2)NC(=O)CSC[C@@H](C(=O)NCC(N)=O)NC(=O)[C@H]([C@@H](C)O)NC(=O)[C@H](C(C)C)NC(=O)[C@H](CC(C)C)NC(=O)[C@H](CC(N)=O)NC(=O)[C@@H](CC(C)C)NC(=O)[C@H](CCN)NC(=O)[C@H](C(C)C)NC(=O)[C@H](Cc2ccc(-c3ccccc3)cc2)NC1=O (stereo partly drawn) [Compound 1215] ({CH2CO}-FYD[ξW]L[Bip]V[Dab][dL]NLVTCG-NH2; thioether N-14) | 0.047
CC(C)C[C@H]1NC(=O)[C@H](CCCN)NC(=O)[C@H](CCCNC(N)=O)NC(=O)[C@H](Cc2ccc(-c3ccccc3)cc2)NC(=O)[C@H](C(C)C)NC(=O)[C@H](Cc2c[nH]c3ccccc23)NC(=O)[C@H](CC(=O)O)NC(=O)[C@H](Cc2ccc(OCC(=O)O)cc2)NC(=O)[C@H](Cc2ccc(OCC(=O)O)cc2)NC(=O)CSC[C@@H](C(=O)N[C@@H](C)C(N)=O)NC(=O)[C@H]([C@@H](C)O)NC(=O)[C@H](C(C)C)NC(=O)[C@H](Cc2cccc(F)c2)NC(=O)[C@H](CCN)NC1=O [Compound 1676] ({CH2CO}-Y(Carboxymethyl)Y(Carboxymethyl)DWV[Bip][Cit][Orn][dL][Dab][Phe(3-F)]VTCA-NH2; thioether N-14) | 0.0222
CC(C)C[C@@H]1NC(=O)[C@H](CCN)NC(=O)[C@@H](CC(C)C)NC(=O)[C@H](CCN)NC(=O)[C@H](CCCNC(=N)N)NC(=O)[C@H](Cc2ccc(-c3ccccc3)cc2)NC(=O)[C@H](C(C)C)NC(=O)[C@H](Cc2c[nH]c3ccccc23)NC(=O)[C@H](CC(=O)O)NC(=O)[C@H](Cc2ccc(O)cc2)NC(=O)[C@H](CC(N)=O)NC(=O)CSC[C@@H](C(=O)N[C@@H](C)C(N)=O)NC(=O)[C@H]([C@@H](C)O)NC(=O)[C@H](C(C)C)NC1=O [Compound 1004] ({CH2CO}-NYDWV[Bip]R[Dab][dL][Dab]LVTCA-NH2; thioether N-14) | 0.0532
CC(C)C[C@@H]1NC(=O)[C@H](CCN)NC(=O)[C@@H](CC(C)C)NC(=O)[C@H](C(C)C)NC(=O)[C@H](C(C)C)NC(=O)[C@H](Cc2ccc(-c3ccccc3)cc2)NC(=O)[C@H](C(C)C)NC(=O)[C@H](Cc2c[nH]c3ccccc23)NC(=O)[C@H](CC(=O)O)NC(=O)[C@H](Cc2ccc(O)cc2)NC(=O)[C@H](CC(N)=O)NC(=O)CSC[C@@H](C(=O)N[C@@H](C)C(N)=O)NC(=O)[C@H]([C@@H](C)O)NC(=O)[C@H](C(C)C)NC1=O [Compound 1034] ({CH2CO}-NYDWV[Bip]VV[dL][Dab]LVTCA-NH2; thioether N-14) | 0.099
COc1cccc(C[C@@H]2NC(=O)[C@H](CC(=O)O)NC(=O)[C@H](Cc3ccncc3)NC(=O)[C@H](Cc3ccc(OCC(=O)O)cc3)NC(=O)CSC[C@@H](C(=O)N[C@@H](C)C(N)=O)NC(=O)[C@H]([C@@H](C)O)NC(=O)[C@H](C(C)C)NC(=O)[C@H](CC3CCCCC3)NC(=O)[C@H](CCN)NC(=O)[C@@H](CC(C)C)NC(=O)[C@H](CCCN)NC(=O)[C@H](CCC(=O)O)NC(=O)[C@H](Cc3ccc(-c4ccccc4)cc3)NC(=O)[C@H](C(C)C)NC2=O)c1 [Compound 1505] ({CH2CO}-Y(Carboxymethyl)[4Pal]D[Phe(3-OMe)]V[Bip]E[Orn][dL][Dab][Cha]VTCA-NH2; thioether N-14) | 0.0237
CCC(C)[C@@H]1NC(=O)[C@H](Cc2ccc(-c3ccccc3)cc2)NC(=O)[C@H](C(C)C)NC(=O)[C@H](Cc2cccc(C)c2)NC(=O)[C@H](CC(=O)O)NC(=O)[C@H](Cc2ccc(C(=O)O)cc2)NC(=O)[C@H](Cc2ccncc2)NC(=O)CSC[C@@H](C(N)=O)NC(=O)[C@H](CO)NC(=O)[C@H](C(C)C)NC(=O)[C@H](CC2CCCCC2)NC(=O)[C@H](CCN)NC(=O)[C@@H](CC(C)C)NC(=O)[C@H](CCCN)NC1=O (stereo partly drawn) [Compound 2276] ({CH2CO}-[4Pal][Phe(4-COOH)]D[Phe(3-Me)]V[Bip][Ile(3ξ)][Orn][dL][Dab][Cha]VSC-NH2; thioether N-14) | 0.0266

These reach a lower IC50. Values come first.

IC50 [µM] | SMILES
0.0171 | C#CC[C@H](NC(=O)[C@H](C)NC(=O)[C@@H]1CSCC(=O)N[C@@H](CCN)C(=O)N[C@@H](Cc2ccc(OCC(=O)O)cc2)C(=O)N[C@@H](CC(=O)O)C(=O)N[C@@H](Cc2cccc(C)c2)C(=O)N[C@@H](Cc2ccc(OCC(=O)O)cc2)C(=O)N[C@@H](Cc2ccc(-c3ccccc3)cc2)C(=O)N[C@@H](Cc2ccc(OCC(=O)O)cc2)C(=O)N[C@@H](CCCN)C(=O)N[C@H](CC(C)C)C(=O)N[C@@H](CCN)C(=O)N[C@@H](CC2CCCCC2)C(=O)N[C@@H](C(C)(C)O)C(=O)N[C@@H](CCCC)C(=O)N1)C(=O)O [Compound 2696] ({CH2CO}-[Dab]Y(Carboxymethyl)D[Phe(3-Me)]Y(Carboxymethyl)[Bip]Y(Carboxymethyl)[Orn][dL][Dab][Cha][Val(3-OH)][Nle]CA[Pra]-OH; thioether N-14)
0.0161 | CCCC[C@@H]1NC(=O)[C@H](CC(N)=O)NC(=O)[C@@H](CC(C)C)NC(=O)[C@H](CN)NC(=O)[C@H](C(C)C)NC(=O)[C@H](Cc2ccc(-c3ccccc3)cc2)NC(=O)[C@H](CC(C)C)NC(=O)[C@H](Cc2c[nH]c3ccccc23)NC(=O)[C@H](CC(=O)O)NC(=O)[C@H](Cc2ccc(OCC(=O)O)cc2)NC(=O)[C@H](CN)NC(=O)CSC[C@@H](C(=O)NCC(N)=O)NC(=O)[C@H](CO)NC(=O)[C@H](C(C)C)NC1=O [Compound 1399] ({CH2CO}-[Dap]Y(Carboxymethyl)DWL[Bip]V[Dap][dL]N[Nle]VSCG-NH2; thioether N-14)
0.0137 | CC(C)C[C@@H]1NC(=O)[C@H](CCN)NC(=O)[C@@H](CC(C)C)NC(=O)[C@H](CCCN)NC(=O)[C@H](C(C)C)NC(=O)[C@H](Cc2ccc(-c3ccccc3)cc2)NC(=O)[C@H](C(C)C)NC(=O)[C@H](Cc2c[nH]c3ccccc23)NC(=O)[C@H](CC(=O)O)NC(=O)[C@H](Cc2ccc(OCC(=O)O)cc2)NC(=O)[C@H](CN)NC(=O)CSC[C@@H](C(=O)N[C@@H](C)C(N)=O)NC(=O)[C@H]([C@@H](C)O)NC(=O)[C@H](C(C)C)NC1=O [Compound 1048] ({CH2CO}-[Dap]Y(Carboxymethyl)DWV[Bip]V[Orn][dL][Dab]LVTCA-NH2; thioether N-14)
0.0091 | CCCC[C@H]1NC(=O)[C@H](CCCN)NC(=O)[C@H](C(C)C)NC(=O)[C@H](Cc2ccc(-c3ccccc3)cc2)NC(=O)[C@H](C(C)C)NC(=O)[C@H](Cc2c[nH]c3ccccc23)NC(=O)[C@H](CC(=O)O)NC(=O)[C@H](Cc2ccc(OCC(=O)O)cc2)NC(=O)[C@H](Cc2ccncc2)NC(=O)CSC[C@@H](C(=O)N[C@@H](C)C(N)=O)NC(=O)[C@H]([C@@H](C)O)NC(=O)[C@H](C(C)C)NC(=O)[C@H](CC2CCCCC2)NC(=O)[C@H](CCN)NC1=O [Compound 1693]
0.0089 | CCCC[C@@H]1NC(=O)[C@H](CCN)NC(=O)[C@@H](CC(C)C)NC(=O)[C@H](CCCN)NC(=O)[C@H](C(C)C)NC(=O)[C@H](Cc2ccc(-c3ccccc3)cc2)NC(=O)[C@H](C(C)C)NC(=O)[C@H](Cc2cccc(C)c2)NC(=O)[C@H](CC(=O)O)NC(=O)[C@H](Cc2ccc(OCC(=O)O)cc2)NC(=O)[C@H](CN)NC(=O)CSC[C@@H](C(=O)N[C@@H](C)C(N)=O)NC(=O)[C@H]([C@@H](C)O)NC(=O)[C@H](C(C)C)NC1=O [Compound 1211] ({CH2CO}-[Dap]Y(Carboxymethyl)D[Phe(3-Me)]V[Bip]V[Orn][dL][Dab][Nle]VTCA-NH2; thioether N-14)
0.0069 | C#CCOc1ccc(C[C@@H]2NC(=O)[C@H](Cc3cccc(C)c3)NC(=O)[C@H](CC(=O)O)NC(=O)[C@H](Cc3ccc(C(=O)O)cc3)NC(=O)[C@H](CN)NC(=O)CSC[C@@H](C(=O)N[C@@H](CCN)C(N)=O)NC(=O)[C@H]([C@@H](C)O)NC(=O)[C@H](C(C)C)NC(=O)[C@H](CC3CCCCC3)NC(=O)[C@H](CCN)NC(=O)[C@@H](CC(C)C)NC(=O)[C@H](CCCN)NC(=O)[C@H](C(C)C)NC(=O)[C@H](Cc3ccc(-c4ccccc4)cc3)NC2=O)cc1 [Compound 2022] ({CH2CO}-[Dap][Phe(4-COOH)]D[Phe(3-Me)]Y(Propargyl)[Bip]V[Orn][dL][Dab][Cha]VTC[Dab]-NH2; thioether N-14)
0.0068 | Cc1cccc(C[C@@H]2NC(=O)[C@H](CC(=O)O)NC(=O)[C@H](Cc3ccncc3)NC(=O)[C@H](Cc3ccc(OCC(=O)O)cc3)NC(=O)CSC[C@@H](C(=O)N[C@@H](C)C(N)=O)NC(=O)[C@H]([C@@H](C)O)NC(=O)[C@H](C(C)C)NC(=O)[C@H](CC3CCCCC3)NC(=O)[C@H](CCN)NC(=O)[C@@H](CC(C)C)NC(=O)[C@H](CCCN)NC(=O)[C@H](C(C)C)NC(=O)[C@H](Cc3ccc(-c4ccccc4)cc3)NC(=O)[C@H](C(C)C)NC2=O)c1 [Compound 1329] ({CH2CO}-Y(Carboxymethyl)[4Pal]D[Phe(3-Me)]V[Bip]V[Orn][dL][Dab][Cha]VTCA-NH2; thioether N-14)
